Measurements taken from US20200187502A1, “MICROBIOCIDAL OXADIAZOLE DERIVATIVES” (SYNGENTA PARTICIPATIONS AG, priority 2017, published 2020).

Tests used:
[1] = test system: Puccinia recondita f. Sp. Tritici; assay: Fungicidal activity, wheat leaf disc preventative (brown rust); format: in vivo; conditions: foliar, 200 ppm in the applied formulation, wheat leaf segments cv. Kanzler, compared to untreated control, 7 to 9 days after application, read-out: disease control
Method in brief: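 Wheat cv. Kanzler leaf segments on agar were sprayed with formulated compound in water, then inoculated with spores 1 day later. Incubated at 19° C, 75% rh, 12 h light/12 h dark; percent disease control versus untreated scored 7 to 9 days after application.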

Phakopsora pachyrhizi = assay: Fungicidal activity, soybean leaf disc preventative (Asian soybean rust); format: in vivo; conditions: foliar, 200 ppm in the applied formulation, soybean leaf disks, compared to untreated control, 12 to 14 days after application, read-out: disease control
Method in brief: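 Read-out is percent disease control relative to untreated check discs, assessed once untreated discs show adequate disease, 12 to 14 days after application. Compounds, tested at 200 ppm in the applied formulation, are sprayed onto soybean leaf discs one day before inoculation with a spore suspension.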

[2] = test system: Puccinia recondita f. Sp. Tritici; assay: Fungicidal activity, wheat leaf disc curative (brown rust); format: in vivo; conditions: foliar, 200 ppm in the applied formulation, wheat leaf segments cv. Kanzler, curative (applied 1 day after inoculation), compared to untreated control, 6 to 8 days after application, read-out: disease control
Method in brief: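 Spray application came one day after spore inoculation of Kanzler wheat leaf segments kept on agar. Conditions: 19° C, 75% relative humidity, dark before treatment and 12 h light/12 h dark after. Efficacy = % disease control compared with untreated, 6–8 days post-application.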

[3] = test system: Glomerella lacenarium (Colletotrichum lacenarium); assay: Fungicidal activity, liquid culture, cucumber preventative (anthracnose); format: cell-based; conditions: 20 ppm in the applied formulation, liquid culture in PDB, inhibition of growth measured photometrically 3 to 4 days after application, compared to untreated control, read-out: disease control
Method in brief: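 In liquid culture, cryo-stored conidia in potato dextrose broth were exposed to compound delivered from DMSO solution. Growth inhibition was measured photometrically after 3 to 4 days at 24° C.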

CNC(=O)N(Cc1ccc(-c2noc(C(F)(F)F)n2)s1)OC [Compound 1.2, 1-methoxy-3-methyl-1-[[5-[5-(trifluoromethyl)-1,2,4-oxadiazol-3-yl]-2-thienyl]methyl]urea]
pest or weed control at 200 ppm [1]: ≥ 80% | pest or weed control at 200 ppm (Phakopsora pachyrhizi): ≥ 80% | pest or weed control at 200 ppm [2]: ≥ 80% | inhibition of growth at 20 ppm [3]: ≥ 80% | melting point: 93.2 to 95.7 °C

CON(Cc1ccc(-c2noc(C(F)(F)F)n2)s1)C(=O)NC1CC1 [Compound 1.27, 3-cyclopropyl-1-methoxy-1-[[5-[5-(trifluoromethyl)-1,2,4-oxadiazol-3-yl]-2-thienyl]methyl]urea]
pest or weed control at 200 ppm [1]: ≥ 80% | pest or weed control at 200 ppm (Phakopsora pachyrhizi): ≥ 80% | pest or weed control at 200 ppm [2]: ≥ 80% | inhibition of growth at 20 ppm [3]: ≥ 80% | melting point: 82.2 to 83.8 °C

CN(Cc1ccc(-c2noc(C(F)(F)F)n2)s1)C(=O)C1(C)CC1 [Compound 5.21, N,1-dimethyl-N-[[5-[5-(trifluoromethyl)-1,2,4-oxadiazol-3-yl]-2-thienyl]methyl]cyclopropanecarboxamide]
pest or weed control at 200 ppm [1]: ≥ 80% | pest or weed control at 200 ppm (Phakopsora pachyrhizi): ≥ 80% | pest or weed control at 200 ppm [2]: ≥ 80% | inhibition of growth at 20 ppm [3]: ≥ 80%

CN(Cc1ccc(-c2noc(C(F)(F)F)n2)s1)C(=O)C1CC1(F)F (centres unmarked) [Compound 5.24, 2,2-difluoro-N-methyl-N-[[5-[5-(trifluoromethyl)-1,2,4-oxadiazol-3-yl]-2-thienyl]methyl]cyclopropanecarboxamide]
pest or weed control at 200 ppm [1]: ≥ 80% | pest or weed control at 200 ppm (Phakopsora pachyrhizi): ≥ 80% | pest or weed control at 200 ppm [2]: ≥ 80% | inhibition of growth at 20 ppm [3]: ≥ 80%

CC1CC1C(=O)N(C)Cc1ccc(-c2noc(C(F)(F)F)n2)s1 (centres unmarked) [Compound 5.25, N,2-dimethyl-N-[[5-[5-(trifluoromethyl)-1,2,4-oxadiazol-3-yl]-2-thienyl]methyl]cyclopropanecarboxamide]
pest or weed control at 200 ppm [1]: ≥ 80% | pest or weed control at 200 ppm (Phakopsora pachyrhizi): ≥ 80% | pest or weed control at 200 ppm [2]: ≥ 80% | inhibition of growth at 20 ppm [3]: ≥ 80%

O=C(NC1CC1)N(Cc1ccc(-c2noc(C(F)(F)F)n2)s1)C1CC1 [Compound 5.62, 1,3-dicyclopropyl-1-[[5-[5-(trifluoromethyl)-1,2,4-oxadiazol-3-yl]-2-thienyl]methyl]urea]
pest or weed control at 200 ppm [1]: ≥ 80% | pest or weed control at 200 ppm (Phakopsora pachyrhizi): ≥ 80% | pest or weed control at 200 ppm [2]: ≥ 80% | inhibition of growth at 20 ppm [3]: ≥ 80%

O=C(NC1CC1)N(Cc1ccc(-c2noc(C(F)(F)F)n2)s1)OCC(F)F [Compound 5.65, 3-cyclopropyl-1-(2,2-difluoroethoxy)-1-[[5-[5-(trifluoromethyl)-1,2,4-oxadiazol-3-yl]-2-thienyl]methyl]urea]
pest or weed control at 200 ppm [1]: ≥ 80% | pest or weed control at 200 ppm (Phakopsora pachyrhizi): ≥ 80% | pest or weed control at 200 ppm [2]: ≥ 80% | inhibition of growth at 20 ppm [3]: ≥ 80%

CCN(Cc1ccc(-c2noc(C(F)(F)F)n2)s1)C(=O)C(N)=O [Compound 6.5, N′-ethyl-N′-[[5-[5-(trifluoromethyl)-1,2,4-oxadiazol-3-yl]-2-thienyl]methyl]oxamide]
pest or weed control at 200 ppm [1]: ≥ 80% | pest or weed control at 200 ppm (Phakopsora pachyrhizi): ≥ 80% | pest or weed control at 200 ppm [2]: ≥ 80% | inhibition of growth at 20 ppm [3]: ≥ 80%

CN(Cc1ccc(-c2noc(C(F)(F)F)n2)s1)C(=O)C(N)=O [Compound 6.7, N′-methyl-N′-[[5-[5-(trifluoromethyl)-1,2,4-oxadiazol-3-yl]-2-thienyl]methyl]oxamide]
pest or weed control at 200 ppm [1]: ≥ 80% | pest or weed control at 200 ppm (Phakopsora pachyrhizi): ≥ 80% | pest or weed control at 200 ppm [2]: ≥ 80% | inhibition of growth at 20 ppm [3]: ≥ 80%

NC(=O)C(=O)N(Cc1ccc(-c2noc(C(F)(F)F)n2)s1)C1CC1 [Compound 6.10, N′-cyclopropyl-N′-[[5-[5-(trifluoromethyl)-1,2,4-oxadiazol-3-yl]-2-thienyl]methyl]oxamide]
pest or weed control at 200 ppm [1]: ≥ 80% | pest or weed control at 200 ppm (Phakopsora pachyrhizi): ≥ 80% | pest or weed control at 200 ppm [2]: ≥ 80% | inhibition of growth at 20 ppm [3]: ≥ 80%

CCN(Cc1ccc(-c2noc(C(F)(F)F)n2)s1)S(C)(=O)=O [Compound 6.16, N-ethyl-N-[[5-[5-(trifluoromethyl)-1,2,4-oxadiazol-3-yl]-2-thienyl]methyl]methanesulfonamide]
pest or weed control at 200 ppm [1]: ≥ 80% | pest or weed control at 200 ppm (Phakopsora pachyrhizi): ≥ 80% | pest or weed control at 200 ppm [2]: ≥ 80% | inhibition of growth at 20 ppm [3]: ≥ 80%

COCCS(=O)(=O)N(C)Cc1ccc(-c2noc(C(F)(F)F)n2)s1 [Compound 6.21, 2-methoxy-N-methyl-N-[[5-[5-(trifluoromethyl)-1,2,4-oxadiazol-3-yl]-2-thienyl]methyl]ethanesulfonamide]
pest or weed control at 200 ppm [1]: ≥ 80% | pest or weed control at 200 ppm (Phakopsora pachyrhizi): ≥ 80% | pest or weed control at 200 ppm [2]: ≥ 80% | inhibition of growth at 20 ppm [3]: ≥ 80%
